According to publication PMC12042053, “Activation and Allostery in a Fungal SAMHD1 Hydrolase: An Evolutionary Blueprint for dNTP Catabolism” (JACS Au, 2025):
Each block holds one molecule with its values, some of them ahead of it.

Tests used:
Ri SAMHD1 [1] = biological target: T1, Ri SAMHD1 (Rhizophagus irregularis, UniProt A0A015K8Z8); test: X-ray crystal structure, […] Å; format: binding; conditions: M9-Mn protein, excess Mn, 5 mM GTP; allosteric site at interface of three subunits; Ca ion bound
T1 construct: gene RirG_017260; full length (no SAM domain), N-terminal His6-tag, pET28a(+), expressed in E. coli T7 Express in M9 medium with Fe or Mn; purified as monomer and tetramer; crystal model residues 11-451

Ri SAMHD1 [2] = biological target: T1, Ri SAMHD1; test: nucleotide-induced tetramerization, glutaraldehyde cross-linking and SDS-PAGE; format: binding; conditions: monomer, 2 μM, pH 6.5, allosteric
Ri SAMHD1 [3] = biological target: T1, Ri SAMHD1; test: EPR of mixed-valent diiron cofactor; format: binding; conditions: M9-Fe protein 0.5 mM, ascorbate-reduced, 2.5 mM nucleotide, O2-free; active site
Ri SAMHD1 [4] = biological target: T2, Ri SAMHD1 (Rhizophagus irregularis, UniProt A0A015K8Z8, D34A); test: nucleotide-induced tetramerization, glutaraldehyde cross-linking and SDS-PAGE; format: binding; conditions: monomer, 2 μM, 1 mM Mn, pH 6.5; allosteric, cooperative
T2 construct: gene RirG_017260; full length (no SAM domain), N-terminal His6-tag, pET28a(+), expressed in E. coli T7 Express in M9 medium with Fe or Mn; purified as monomer and tetramer; crystal model residues 11-451
T2 sequence (A0A015K8Z8 entry or part of it D34A): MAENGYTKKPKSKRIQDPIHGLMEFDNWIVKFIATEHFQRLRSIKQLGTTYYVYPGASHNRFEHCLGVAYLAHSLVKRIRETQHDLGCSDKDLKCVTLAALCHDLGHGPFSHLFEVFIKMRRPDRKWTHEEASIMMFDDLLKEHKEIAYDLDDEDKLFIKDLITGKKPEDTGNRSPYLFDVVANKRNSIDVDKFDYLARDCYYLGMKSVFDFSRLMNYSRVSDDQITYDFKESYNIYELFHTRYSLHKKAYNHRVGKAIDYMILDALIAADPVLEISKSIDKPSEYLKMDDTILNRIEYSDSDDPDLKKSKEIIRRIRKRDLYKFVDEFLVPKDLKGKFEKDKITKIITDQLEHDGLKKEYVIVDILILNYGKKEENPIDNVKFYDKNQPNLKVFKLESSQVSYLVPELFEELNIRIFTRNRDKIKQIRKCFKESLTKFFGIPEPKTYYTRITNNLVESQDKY

Ri SAMHD1 [5] = biological target: T3, Ri SAMHD1 (Rhizophagus irregularis, UniProt A0A015K8Z8, R42A); test: as above; format: binding; conditions: monomer, 2 μM, 1 mM Mn, pH 6.5; allosteric, cooperative
T3 construct: gene RirG_017260; full length (no SAM domain), N-terminal His6-tag, pET28a(+), expressed in E. coli T7 Express in M9 medium with Fe or Mn; purified as monomer and tetramer; crystal model residues 11-451
T3 sequence (A0A015K8Z8 entry or part of it R42A): as the sequence (A0A015K8Z8 entry or part of it D34A) above, with A34D, R42A counted along it

Ri SAMHD1 [6] = biological target: T1, Ri SAMHD1; test: steady-state hydrolysis, HPLC […] nm; format: biochemical; conditions: M9-Fe tetramer, 0.25 μM, 1 mM Mn, 5 mM dithionite, O2-free, fit with substrate/product inhibition, suggested allosteric, second site
[7] = biological target: SAMHD1 protein from Rhizophagus irregularis, wild type (Rhizophagus irregularis)
purified protein = substrate: Nc1nc2c(ncn2[C@H]2C[C@H](O)[C@@H](COP(=O)(O)OP(=O)(O)OP(=O)(O)O)O2)c(=O)[nH]1; test: purified protein; format: biochemical, Rhizophagus irregularis; conditions: M9-Fe tetramer, 0.25 μM, 1 mM Mn, 5 mM dithionite, O2-free; fit with substrate/product inhibition

EC50 (Ri SAMHD1 [2]; Mn): 31 ± 2 µM
Molecule: Nc1nc2c(ncn2[C@@H]2O[C@H](COP(=O)(O)OP(=O)(O)OP(=O)(O)O)[C@@H](O)[C@H]2O)c(=O)[nH]1 [GTP]
X-ray crystal structure, 2.27 Å (Ri SAMHD1 [1]): only one nucleotide (GTP) is positioned within the interface of three subunits

Molecule: Nc1ncnc2c1ncn2[C@H]1C[C@H](O)[C@@H](COP(=O)(O)OP(=O)(O)OP(=O)(O)O)O1 [dATP]
EPR of mixed-valent diiron cofactor (Ri SAMHD1 [3]): Addition of nonguanine-containing dNTPs (dATP, dCTP, and dTTP) increased the signal rhombicity

Molecule: Nc1ccn([C@H]2C[C@H](O)[C@@H](COP(=O)(O)OP(=O)(O)OP(=O)(O)O)O2)c(=O)n1 [dCTP]
EPR of mixed-valent diiron cofactor (Ri SAMHD1 [3]): Addition of nonguanine-containing dNTPs (dATP, dCTP, and dTTP) increased the signal rhombicity

EC50 (Ri SAMHD1 [4]): 235 ± 5 µM | EC50 (Ri SAMHD1 [5]): 605 ± 9 µM | apparent KI (Ri SAMHD1 [6]): 301 ± 24 µM | EC50 (Ri SAMHD1 [2]; 1 mM Mn): 21 ± 3 µM
Molecule: Nc1nc2c(ncn2[C@H]2C[C@H](O)[C@@H](COP(=O)(O)OP(=O)(O)OP(=O)(O)O)O2)c(=O)[nH]1 [dGTP]

Molecule: Cc1cn([C@H]2C[C@H](O)[C@@H](COP(=O)(O)OP(=O)(O)OP(=O)(O)O)O2)c(=O)[nH]c1=O [dTTP]
EPR of mixed-valent diiron cofactor (Ri SAMHD1 [3]): Addition of nonguanine-containing dNTPs (dATP, dCTP, and dTTP) increased the signal rhombicity

apparent dNTP hydrolysis rates of the monomeric form on addition of GTP [7]: < 2.4 fold
Molecule: SAMHD1 protein from Rhizophagus irregularis, wild type (enzyme)

B1: Ri SAMHD1 (Rhizophagus irregularis DAOM 197198w) (protein)
chain: MAENGYTKKPKSKRIQDPIHGLMEFDNWIVKFIDTEHFQRLRSIKQLGTTYYVYPGASHNRFEHCLGVAYLAHSLVKRIRETQHDLGCSDKDLKCVTLAALCHDLGHGPFSHLFEVFIKMRRPDRKWTHEEASIMMFDDLLKEHKEIAYDLDDEDKLFIKDLITGKKPEDTGNRSPYLFDVVANKRNSIDVDKFDYLARDCYYLGMKSVFDFSRLMNYSRVSDDQITYDFKESYNIYELFHTRYSLHKKAYNHRVGKAIDYMILDALIAADPVLEISKSIDKPSEYLKMDDTILNRIEYSDSDDPDLKKSKEIIRRIRKRDLYKFVDEFLVPKDLKGKFEKDKITKIITDQLEHDGLKKEYVIVDILILNYGKKEENPIDNVKFYDKNQPNLKVFKLESSQVSYLVPELFEELNIRIFTRNRDKIKQIRKCFKESLTKFFGIPEPKTYYTRITNNLVESQDKY
notes: full length (no SAM domain), N-terminal His6-tag, pET28a(+), expressed in E. coli T7 Express in M9 medium with Fe or Mn; purified as monomer and tetramer; crystal model residues 11-451
Km (purified protein): 11 ± 3 µM
